Test results reported in patent publication US8937193B2, “Apogossypolone derivatives as anticancer agents” (Sanford-Burnham Medical Research Institute, priority 2009, dated 2015).
Several values for one entry are separate records, joined by “and”; a condition that tells them apart may be missing. Identical values can stand only once. Entries after “also recorded” stand apart in the source; their conditions may differ.

What was measured:
[1] = administered orally (6a); cited from earlier work
BP3 cell line = test: Annexin V-FITC and propidium iodide apoptosis assay, BP3; assay type: cell-based, human; settings: for EC50: Homo sapiens, BP3, 24 h, Annexin V-FITC and propidium iodide assay, 1 day
Description: (§3) The apoptotic activity of the compounds against RS4;11, BP3 and primary CLL cells was assessed by staining with Annexin V-FITC and propidium iodide (PI). Cells were cultured in RPMI 1640 medium (Mediatech Inc., Herndon, Va. 20171) containing 10% fetal bovine serum (Mediatech Inc., Herndon, Va. 20171) and Penicillin/Streptomycin (Mediatech Inc., Herndon, Va. 20171). […] The percentage of viable cells was determined by FITC-Annexin V- and propidium iodide (PI)-labeling, using an Apoptosis Detection kit (BioVision Inc.), and analyzing stained cells by flow cytometry (FACSort; Bectin-Dickinson, Inc.; Mountain View, Calif.). Cells that were annexin-V-negative and PI-negative were considered viable.

EC50 values of FIG. 3(B) = settings: test not named
H1299 cell line = test: ATP-LITE cell viability assay, H1299; assay type: cell-based; settings: Homo sapiens, NCI-H1299, 72 h, 3 days
Description: (§1) The activity of the compounds of Formula I against human cancer cell lines (PC3ML, H460, H1299, RS11846) may be assessed by using the ATP-LITE assay (PerkinElmer). All cells are seeded in either F12 or RPMI1640 medium with 5 mM L-glutamine supplemented with 5% fetal bovine serum (Mediatech Inc.), penicillin and streptomycin (Omega). For maintenance, cells are cultured in 5% FBS. Cells plated into 96 well plates at varying initial densities depending on doubling time. H460 and H1299 plated at 2000 cells/well, A549 and PC3 at 3000 cells/well, and […] at 10,000 cells/well. The compounds are diluted to final concentrations with 0.1% DMSO. Prior to dispensing the compounds onto cells, fresh 5% media is placed into the wells. Administration of compounds occurs 24 hours after seeding into the fresh media. Cell viability may be evaluated using ATP-LITE reagent (PerkinElmer) after 72 hours of treatment. Data are normalized to the DMSO control-treated cells using Prism version 5.01 (Graphpad Software).
(§2) The activity of the compounds against human cancer cell lines (PC3, H460, H1299) were assessed by using the ATP-LITE assay (PerkinElmer). All cells were seeded in either […] or RPMI1640 medium with 5 mM L-glutamine supplemented with 5% fetal bovine serum (Mediatech Inc.), penicillin and streptomycin (Omega). For maintenance, cells were cultured in 5% FBS. Cells plated into 96 well plates at varying initial densities depending on doubling time. H460 and H1299 plated at 2000 cells/well and PC3 at 3000 cells/well. Compounds were diluted to final concentrations with 0.1% DMSO. Prior to dispensing compounds onto cells, fresh 5% media was placed into wells. Administration of compounds occurred 24 hours after seeding into the fresh media. Cell viability was evaluated using ATP-LITE reagent (PerkinElmer) after 72 hours of treatment. Data were normalized to the DMSO control-treated cells using Prism version 5.01 (Graphpad Software).

PC3 cell line = test: ATP-LITE cell viability assay, PC3; assay type: cell-based; settings: Homo sapiens, PC-3, 72 h, 3 days
Description: as §2

primary CLL cells = test: Annexin-V apoptosis assay, primary CLL cells; assay type: cell-based, human
Description: as §3

H460 cell line = test: ATP-LITE cell viability assay, H460; assay type: cell-based; settings: Homo sapiens, NCI-H460, 72 h, 3 days
Description: as §1, §2

[2] = In vitro microsomal stability; settings: Table 4
Description: (§4) To test the pharmacological properties of the compounds of Formula I, the in vitro plasma stability, microsomal stability, and cell membrane permeability may be determined.

[3] = In vitro plasma stability; settings: for Plasma Stability (T = 40 mins): Table 4; for degraded after 1 hour incubation in rat plasma: rat plasma (preparations)
Description: as §4

RS4;11 cell line = test: Annexin V-FITC and propidium iodide apoptosis assay, RS4;11; assay type: cell-based; settings: Homo sapiens, RS4-11, 24 h, 1 day
Description: as §3

PPC-1 xenograft tumors = test: PPC-1 tumor xenograft study in nude mice
Description: Female 6-week-old nude mice were purchased from Charles River Laboratories. 5×10^6 PCC-1 cells suspended in 0.2 ml PBS were injected subcutaneously into a flank region of each nude mouse. Tumor bearing mice were size matched (200 mm^3) into treatment and control group, ear tagged, and monitored individually. Tumor volume was measured two to three times weekly by digital calipers (volume=length×width^2/2). All studies use 6 mice per group. […] Control mice received saline. The injections were given three times in first week, twice in second week and once in third week and a total of six injections were administered during the experiment. When all tumors of the control group exceed 2000 mm^3 in volume, the animal experiment was terminated. Tumor growth inhibition ratios (T/C %) were calculated by dividing the average tumor volume in the treatment group by the average tumor volume in the control group.

Bcl-XL = Bcl-XL (Homo sapiens (Human), UniProt Q07817); test: Fluorescence polarization competitive binding assay (FPA), Bcl-XL; settings: displacement of BH3 peptide
Chain of Bcl-XL (Q07817 1-211): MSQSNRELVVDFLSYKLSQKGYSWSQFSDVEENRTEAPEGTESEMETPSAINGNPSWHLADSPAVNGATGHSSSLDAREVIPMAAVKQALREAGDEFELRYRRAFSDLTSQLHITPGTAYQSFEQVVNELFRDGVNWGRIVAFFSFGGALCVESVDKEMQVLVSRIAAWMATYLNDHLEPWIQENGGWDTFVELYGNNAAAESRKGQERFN
Description: For competitive binding assays, 100 nM GST-BCL-XL ΔTM protein was preincubated with the tested compound at varying concentrations in 47.5 μL PBS (pH=7.4) in 96-well black plates at room temperature for 10 min, then 2.5 μL of 100 nM FITC-labeled Bak BH3 peptide was added to produce a final volume of 50 μL. The wild-type and mutant Bak BH3 peptides were included in each assay plate as positive and negative controls, respectively. After 30 min incubation at room temperature, the polarization values in millipolarization units were measured at excitation/emission wavelengths of 480/535 nm with a multilabel plate reader (PerkinElmer). IC50 was determined by fitting the experimental data to a sigmoidal dose-response nonlinear regression model (SigmaPlot 10.0.1, Systat Software, Inc., San Jose, Calif., USA). Data reported are mean of three independent experiments±standard error (SE). […] Fluorescence polarization was measured after 10 min.

| SMILES | EC50 (H1299 cell line) [nM] | EC50 (PC3 cell line) [nM] | EC50 (H460 cell line) [nM] | Plasma Stability (T = 40 mins) [3] [%] | other results |
| --- | --- | --- | --- | --- | --- |
| Cc1cc2c(C(C)C)c(O)c(O)c(C=O)c2c(O)c1-c1c(C)cc2c(C(C)C)c(O)c(O)c(C=O)c2c1O [(−) 1] | – | – | – | – | maximum tolerated dose (MTD) [1]: 50 mg/kg |
| CN(C)CC[C@H](CSc1ccccc1)Nc1ccc(S(=O)(=O)NC(=O)c2ccc(N3CCN(Cc4ccccc4-c4ccc(Cl)cc4)CC3)cc2)cc1[N+](=O)[O-] [ABT-737, reference compound] | – | – | – | – | cell (cytotoxic) activity against BP3 cell lines (BP3 cell line; result in words): no cell activity; also recorded: no cytotoxic activity |
| Cc1cc2c(C(=O)Cc3ccccc3)c(O)c(O)cc2c(O)c1-c1c(C)cc2c(C(=O)Cc3ccccc3)c(O)c(O)cc2c1O [BI79D10] | – | – | – | – | EC50 (EC50 values of FIG. 3(B)): 360 nM |
| CC1=C(C2=C(C)C(=O)c3c(cc(O)c(O)c3CC3CCCC3)C2=O)C(=O)c2cc(O)c(O)c(CC3CCCC3)c2C1=O [Compound 6c, 5,5′-bis(cyclopentylmethyl)-6,6′,7,7′-tetrahydroxy-3,3′-dimethyl-2,2′-binaphthyl-1,1′,4,4′-tetraone] | 2320 ± 510 | 5500 ± 740 | 700 ± 340 | – | LD50 primary CLL samples (primary CLL cells; comparison of 6c with 6a): 6.5 µM |
| CC1=C(C2=C(C)C(=O)c3c(cc(O)c(O)c3CCC3CCCCC3)C2=O)C(=O)c2cc(O)c(O)c(CCC3CCCCC3)c2C1=O [Compound 6d, 5,5′-bis(2-cyclohexylethyl)-6,6′,7,7′-tetrahydroxy-3,3′-dimethyl-2,2′-binaphthyl-1,1′,4,4′-tetraone] | 1320 ± 300 | 2400 ± 240 | 2200 ± 760 | 74 | Microsomal Stability (T = 40 mins) [2]: 98% |
| CC1=C(C2=C(C)C(=O)c3c(cc(O)c(O)c3CCc3ccccc3)C2=O)C(=O)c2cc(O)c(O)c(CCc3ccccc3)c2C1=O [Compound 6e, 6,6′,7,7′-tetrahydroxy-3,3′-dimethyl-5,5′-diphenethyl-2,2′-binaphthyl-1,1′,4,4′-tetraone] | 850 ± 360 | 1400 ± 140 | 1040 ± 130 | 81 | EC50 (RS4;11 cell line): 4750 ± 10 nM; Microsomal Stability (T = 40 mins) [2]: 89%; EC50 (BP3 cell line): 8720 ± 2530 nM |
| CC1=C(C2=C(C)C(=O)c3c(cc(O)c(O)c3CCc3ccc(C)cc3)C2=O)C(=O)c2cc(O)c(O)c(CCc3ccc(C)cc3)c2C1=O [Compound 6f, 6,6′,7,7′-tetrahydroxy-3,3′-dimethyl-5,5′-bis(4-methylphenethyl)-2,2′-binaphthyl-1,1′,4,4′-tetraone] | – | – | – | 86 | LD50 primary CLL samples (primary CLL cells; six CLL samples from six different patients): 1.0 to 16.9 µM; LD50 primary CLL samples (primary CLL cells; two primary CLL samples, one day Annexin-V apoptosis assay): 10 µM and 15 µM; average body weight losses during the treatment (PPC-1 xenograft tumors; 50 mg/kg i.p.): 6.8%; signs of toxicity (PPC-1 xenograft tumors; 50 mg/kg i.p.): no observable signs of toxicity; weight loss in first week (PPC-1 xenograft tumors; 50 mg/kg i.p. three times in first week): ~5%; degraded after 1 hour incubation in rat plasma [3]: 14% |
| CC1=C(C2=C(C)C(=O)c3c(cc(O)c(O)c3CCCc3ccccc3)C2=O)C(=O)c2cc(O)c(O)c(CCCc3ccccc3)c2C1=O [Compound 6g, 6,6′,7,7′-tetrahydroxy-3,3′-dimethyl-5,5′-bis(3-phenylpropyl)-2,2′-binaphthyl-1,1′,4,4′-tetraone] | 1530 ± 410 | 1300 ± 180 | 920 ± 90 | 87 | EC50 (RS4;11 cell line): 3830 ± 700 nM; Microsomal Stability (T = 40 mins) [2]: 88% |
| CC1=C(C2=C(C)C(=O)c3c(cc(O)c(O)c3CCC(C)(C)c3ccccc3)C2=O)C(=O)c2cc(O)c(O)c(CCC(C)(C)c3ccccc3)c2C1=O [Compound 6h, 6,6′,7,7′-tetrahydroxy-3,3′-dimethyl-5,5′-bis(3-methyl-3-phenylbutyl)-2,2′-binaphthyl-1,1′,4,4′-tetraone] | 2160 ± 270 | 2000 ± 170 | 1620 ± 160 | – | – |
| CC1=C(C2=C(C)C(=O)c3c(cc(O)c(O)c3Cc3ccccc3)C2=O)C(=O)c2cc(O)c(O)c(Cc3ccccc3)c2C1=O [Compound 6i, 5,5′-dibenzyl-6,6′,7,7′-tetrahydroxy-3,3′-dimethyl-2,2′-binaphthyl-1,1′,4,4′-tetraone] | – | – | – | 95 | degraded after 1 hour incubation in rat plasma [3]: 5%; IC50 (Bcl-XL): 160 to 630 nM |
| CC1=C(C2=C(C)C(=O)c3c(cc(O)c(O)c3CCc3ccc(OC(F)(F)F)cc3)C2=O)C(=O)c2cc(O)c(O)c(CCc3ccc(OC(F)(F)F)cc3)c2C1=O [Compound 6j, 6,6′,7,7′-tetrahydroxy-3,3′-dimethyl-5,5′-bis(4-(trifluoromethoxy)phenethyl)-2,2′-binaphthyl-1,1′,4,4′-tetraone] | 2380 ± 210 | 8990 ± 2490 | 1440 ± 200 | – | – |
| CC1=C(C2=C(C)C(=O)c3c(cc(O)c(O)c3CCCc3ccc(F)cc3)C2=O)C(=O)c2cc(O)c(O)c(CCCc3ccc(F)cc3)c2C1=O [Compound 6k, 5,5′-bis(3-(4-fluorophenyl)propyl)-6,6′,7,7′-tetrahydroxy-3,3′-dimethyl-2,2′-binaphthyl-1,1′,4,4′-tetraone] | 1910 ± 170 | 2620 ± 310 | 1480 ± 20 | – | – |
| CC1=C(C2=C(C)C(=O)c3c(cc(O)c(O)c3Cc3ccc(Cl)cc3)C2=O)C(=O)c2cc(O)c(O)c(Cc3ccc(Cl)cc3)c2C1=O [Compound 6l, 5,5′-bis(4-chlorobenzyl)-6,6′,7,7′-tetrahydroxy-3,3′-dimethyl-2,2′-binaphthyl-1,1′,4,4′-tetraone] | – | – | – | – | IC50 (Bcl-XL): 160 to 630 nM |
| CC1=C(C2=C(C)C(=O)c3c(cc(O)c(O)c3Cc3ccc(-c4ccccc4)cc3)C2=O)C(=O)c2cc(O)c(O)c(Cc3ccc(-c4ccccc4)cc3)c2C1=O [Compound 6m, 5,5′-bis(biphenyl-4-ylmethyl)-6,6′,7,7′-tetrahydroxy-3,3′-dimethyl-2,2′-binaphthyl-1,1′,4,4′-tetraone] | 10300 ± 3840 | 2970 ± 980 | 980 ± 150 | – | – |
| CC1=C(C2=C(C)C(=O)c3c(cc(O)c(O)c3C(=O)Cc3ccccc3)C2=O)C(=O)c2cc(O)c(O)c(C(=O)Cc3ccccc3)c2C1=O [Compound 7, 6,6′,7,7′-Tetrahydroxy-3,3′-dimethyl-5,5′-bis(2-phenylacetyl)-2,2′-binaphthyl-1,1′,4,4′-tetraone] | > 30000 | 5440 ± 240 | 7380 ± 1070 | – | EC50 (BP3 cell line): 9580 ± 4160 nM; IC50 (Bcl-XL): 160 to 630 nM |
| CC1=C(C2=C(C)C(=O)c3c(cc(O)c(O)c3C(=O)NCC(C)c3ccccc3)C2=O)C(=O)c2cc(O)c(O)c(C(=O)NCC(C)c3ccccc3)c2C1=O (centres unmarked) [Compound 8a, 6,6′,7,7′-Tetrahydroxy-3,3′-dimethyl-1,1′,4,4′-tetraoxo-N^5,N^5′-bis(2-phenylpropyl)-1,1′,4,4′-tetrahydro-2,2′-binaphthyl-5,5′-dicarboxamide] | > 30000 | – | – | 91 | Microsomal Stability (T = 40 mins) [2]: 71%; IC50 (Bcl-XL): 160 to 630 nM |
| CC1=C(C2=C(C)C(=O)c3c(cc(O)c(O)c3C(=O)NCc3cccc(C)c3)C2=O)C(=O)c2cc(O)c(O)c(C(=O)NCc3cccc(C)c3)c2C1=O [Compound 8b, 6,6′,7,7′-tetrahydroxy-3,3′-dimethyl-N^5,N^5′-bis(3-methylbenzyl)-1,1′,4,4′-tetraoxo-1,1′,4,4′-tetrahydro-2,2′-binaphthyl-5,5′-dicarboxamide] | > 30000 | 5440 ± 340 | 6160 ± 1480 | – | – |
| CCc1ccc(CCNC(=O)c2c(O)c(O)cc3c2C(=O)C(C)=C(C2=C(C)C(=O)c4c(cc(O)c(O)c4C(=O)NCCc4ccc(CC)cc4)C2=O)C3=O)cc1 [Compound 8c, N^5,N^5′-Bis(4-ethylphenethyl)-6,6′,7,7′-tetrahydroxy-3,3′-dimethyl-1,1′,4,4′-tetraoxo-1,1′,4,4′-tetrahydro-2,2′-binaphthyl-5,5′-dicarboxamide] | – | – | – | – | IC50 (Bcl-XL): 160 to 630 nM |
| Cc1cc2c(C(C)C)c(O)c(O)c(C=O)c2c(O)c1-c1c(C)cc2c(C(C)C)c(O)c(O)c(C=O)c2c1O [Gossypol, 1,1′,6,6′,7,7′-Hexahydroxy-5,5′-diisopropyl-3,3′-dimethyl-2,2′-binaphthyl-8,8′-dicarboxaldehyde] | – | – | – | – | mortality in first week (PPC-1 xenograft tumors; 25 mg/kg, i.p.): died |
